Data from patent US12491185B2, “Inhibitors of mPTP” (NRG Therapeutics Ltd, priority 2023, dated 2025).

Tested on: mPTP
Test: mPTP activity assay in isolated rat brain mitochondria
Format: biochemical
Details: fluorescence at 10 min timepoint
Protocol: MPTP activity was measured in brain mitochondria freshly isolated from female Sprague Dawley (250 to 300 gram) rats. Anaesthetised rats were perfused in-situ with −40 ml cold Dulbecco's Phosphate Buffered Saline (DPBS), then brains dissected and transferred into 30 ml Isolation Buffer (225 mM mannitol, 75 mM sucrose, 1 mM EGTA, adjusted to pH 7.4 with 1M NaOH). The brain was minced using tweezers and a scalpel into −5 mm pieces then transferred into a 50 ml Potterton Dounce homogenization tube on ice containing 10 ml ice-cold isolation buffer (as above with addition of Complete Protease inhibitor; 1 tablet per 50 ml buffer). Homogenisation was carried out using a teflon pestle at 1800 rpm. The slurry was centrifuged at 2000 g for 10 min at 4° C., then the supernatant centrifuged at 12,000 g for 9 min. The pellet was resuspended with a dounce homogeniser in isolation buffer as above but with the addition of 0.02% digitonin, centrifuged at 12,000 g for 11 min and finally resuspended in 5 ml modified isolation buffer (as above but with EGTA reduced to 0.1 mM).
Test compounds were prepared in 384 well polypropylene assay plates as described above for the liver mitochondria assay. A stock mitochondria/Fluo5N assay solution was prepared in 5.6 ml assay buffer (120 mM mannitol, 40 mM MOPS, 5 mM KH2PO4, 60 mM KCl, 10 mM pyruvate, 2 mM malate, 2 mM MgCl2, 20 μM ADP, 1.26 μM oligomycin A, adjusted to pH 7.4) supplemented with Fluo5N pentapotassium salt (2 μM) and 1 ml mitochondria suspension, then transferred (15 μl) into the assay plate containing test compounds and incubated for 10 min at RT. Assay plates were then transferred to a FLIPR Tetra plate reader (Molecular Devices). Dye fluorescence was then measured every 3 sec for a total of 10 min.

| Compound | mPTP Rat brain pIC50 |
| --- | --- |
| Cn1nc(C(=O)NCC2(Cc3ccccc3)CC2)[nH]c1=O [Example 33, N-((1-benzylcyclopropyl)methyl)-1-methyl-5-oxo-4,5-dihydro-1H-1,2,4-triazole-3-carboxamide] | 6.51 |
| CN(CC1(Cc2ccccc2)CCC1)C(=O)c1cncc(O)n1 [Example 11, N-((1-benzylcyclobutyl)methyl)-6-hydroxy-N-methylpyrazine-2-carboxamide] | 6.48 |
| O=C(NCC1(Cc2ccccc2)CCCC1)c1cncc(=O)[nH]1 [Example 18, N-((1-benzylcyclopentyl)methyl)-6-oxo-1,6-dihydropyrazine-2-carboxamide] | 7.04 |
| O=C(NCC1(Cc2ccccc2)CCCCC1)c1cncc(=O)[nH]1 [Example 47, N-((1-benzylcyclohexyl)methyl)-6-oxo-1,6-dihydropyrazine-2-carboxamide] | 6.91 |
| O=C(NCC1(Cc2ccc(F)cc2F)CC12CC2)c1noc(=O)[nH]1 (single isomer, unassigned) [Example 233] | 7.10 |
| CC(CNC(=O)c1nn(C)c(=O)[nH]1)Cc1ccccc1 (stereo not shown) [Example 32, 1-methyl-N-(2-methyl-3-phenylpropyl)-5-oxo-4,5-dihydro-1H-1,2,4-triazole-3-carboxamide] | 6.79 |
| O=C(NCC1(Cc2ccc(F)cc2F)CCC1)c1cncc(=O)[nH]1 [Example 16, N-((1-(2,4-difluorobenzyl)cyclobutyl)methyl)-6-oxo-1,6-dihydropyrazine-2-carboxamide] | 7.35 |

Tested on: mPTP
Test: mPTP activity (Ca2+ retention) assay in isolated rat liver mitochondria
Format: biochemical
Details: examples tested by different contract research organisations, believed comparable
In short: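 pIC50 was taken from Fluo5N fluorescence at 10 min after a 75 μM CaCl2 bolus, scaled between DMSO (0%) and 5 μM cyclosporin A (100%). Compounds, ten half-log concentrations from 30 μM to 1 nM final, sat 10 min at RT with fresh female Sprague Dawley rat liver mitochondria energized by succinate plus rotenone.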

| Compound | mPTP Rat liver pIC50 |
| --- | --- |
| Cn1nc(C(=O)NCC2(Cc3ccccc3)CC2)[nH]c1=O [Example 33, N-((1-benzylcyclopropyl)methyl)-1-methyl-5-oxo-4,5-dihydro-1H-1,2,4-triazole-3-carboxamide] | 5.63 |
| CN(CC1(Cc2ccccc2)CCC1)C(=O)c1cncc(O)n1 [Example 11, N-((1-benzylcyclobutyl)methyl)-6-hydroxy-N-methylpyrazine-2-carboxamide] | 5.18 |
| O=C(NCC1(Cc2ccccc2)CCCC1)c1cncc(=O)[nH]1 [Example 18, N-((1-benzylcyclopentyl)methyl)-6-oxo-1,6-dihydropyrazine-2-carboxamide] | 5.55 |
| O=C(NCC1(Cc2ccccc2)CCCCC1)c1cncc(=O)[nH]1 [Example 47, N-((1-benzylcyclohexyl)methyl)-6-oxo-1,6-dihydropyrazine-2-carboxamide] | 4.71 |
| O=C(NCC1(Cc2ccc(F)cc2F)CC12CC2)c1noc(=O)[nH]1 (single isomer, unassigned) [Example 233] | 5.77 |
| CC(CNC(=O)c1nn(C)c(=O)[nH]1)Cc1ccccc1 (stereo not shown) [Example 32, 1-methyl-N-(2-methyl-3-phenylpropyl)-5-oxo-4,5-dihydro-1H-1,2,4-triazole-3-carboxamide] | 5.76 |
| O=C(NCC1(Cc2ccc(F)cc2F)CCC1)c1nnc[nH]1 [Example 180] | 5.14 |
| CC(CNC(=O)c1nccc(=O)[nH]1)(Cc1ccc(F)cc1F)C1CC1 (stereo not shown) [Example 187] | 6.53 |
| O=C(NCC1(Cc2cccc(F)c2)CCC1)c1cnn[nH]1 [Example 167] | <4.57 |
| O=C(NCC1(Cc2ccc(F)cc2F)CC12CC2)c1cncc(=O)[nH]1 (stereo not shown) [Example 122] | 6.31 |
| O=C(NC[C@H](Cc1cc(F)ccc1F)C1CC1)c1cncc(=O)[nH]1 [Example 158] | 5.33 |
| O=C(NCC1(Cc2cccc(F)c2)CCC1)c1nnc[nH]1 [Example 171] | 4.87 |
| O=C(NC[C@H](Cc1ccc(F)c(F)c1)C1CC1)c1cncc(=O)[nH]1 [Example 143] | 6.47 |
| O=C(NC[C@H](Cc1ccc(F)cc1F)C1CC1)c1ncc(F)c(=O)[nH]1 [Example 192] | 5.72 |
| O=C(NCC1(Cc2ccc(F)cc2F)CCC1)c1c[nH]c(=O)cn1 [Example 138, N-((1-(2,4-difluorobenzyl)cyclobutyl)methyl)-5-oxo-4,5-dihydropyrazine-2-carboxamide] | <4.57 |
| CCc1ccc(CC2(CNC(=O)c3nn(C)c(=O)[nH]3)CCC2)cc1 [Example 111, N-((1-(4-ethylbenzyl)cyclobutyl)methyl)-1-methyl-5-oxo-4,5-dihydro-1H-1,2,4-triazole-3-carboxamide] | <4.57 |
| CCc1cccc(CC2(CNC(=O)c3nn(C)c(=O)[nH]3)CCC2)c1 [Example 162, N-((1-(3-ethylbenzyl)cyclobutyl)methyl)-1-methyl-5-oxo-4,5-dihydro-1H-1,2,4-triazole-3-carboxamide] | 5.26 |

| Compound | mPTP Rat liver pIC50 |
| --- | --- |
| CC[C@H](CNC(=O)c1noc(=O)[nH]1)Cc1ccc(F)cc1F [Example 209] | 5.96 |
| COCc1ccccc1CC1(CNC(=O)c2nn(C)c(=O)[nH]2)CCC1 [Example 178] | <4.57 |
| Cn1nc(C(=O)NCC2Cc3ccccc3O2)[nH]c1=O (stereo not shown) [Reference Example 114, N-((2,3-dihydrobenzofuran-2-yl)methyl)-1-methyl-5-oxo-4,5-dihydro-1H-1,2,4-triazole-3-carboxamide] | <4.57 |
| CC(C)C(CNC(=O)c1nn(C)c(=O)[nH]1)Cc1ccccc1 (stereo not shown) [Example 45, N-(2-benzyl-3-methylbutyl)-1-methyl-5-oxo-4,5-dihydro-1H-1,2,4-triazole-3-carboxamide] | 6.50 |
| O=C(NCC1(Cc2ccc(F)cc2F)CCC1)c1nncc(=O)[nH]1 [Example 198, N-((1-(2,4-difluorobenzyl)cyclobutyl)methyl)-5-oxo-4,5-dihydro-1,2,4-triazine-3-carboxamide] | 5.95 |
| Cn1nc(C(=O)NC(CCc2ccccc2)CC(F)(F)F)[nH]c1=O (stereo not shown) [Example 71, 1-methyl-5-oxo-N-(1,1,1-trifluoro-5-phenylpentan-3-yl)-4,5-dihydro-1H-1,2,4-triazole-3-carboxamide] | <4.52 |
| O=C1COCC(C(=O)NCC2(Cc3ccccc3)CCC2)N1 (stereo not shown) [Example 65, N-((1-benzylcyclobutyl)methyl)-5-oxomorpholine-3-carboxamide] | <4.52 |
| Cn1nc(C(=O)NCC(CO)Cc2ccccc2)[nH]c1=O (stereo not shown) [Example 70, N-(2-benzyl-3-hydroxypropyl)-1-methyl-5-oxo-4,5-dihydro-1H-1,2,4-triazole-3-carboxamide] | 4.85 |
| CCC(Cc1ccc(F)cc1F)CN(C)C(=O)c1nccc(=O)[nH]1 (stereo not shown) [Example 169] | <4.57 |
| Cn1nc(C(=O)NCC2(C)Cc3ccccc3C2)[nH]c1=O [Example 58] | 5.03 |
| CC[C@@H](Cc1ccccc1)C(C)NC(=O)c1nn(C)c(=O)[nH]1 (stereo partly shown) [Example 135] | 6.52 |
| Cn1nc(C(=O)NCC2(Cc3ccc(F)cc3F)CC23CC3)[nH]c1=O (stereo not shown) [Example 123] | 7.04 |
| CCCC(CNC(=O)c1nn(C)c(=O)[nH]1)Cc1ccccc1 (stereo not shown) [Example 55, N-(2-benzylpentyl)-1-methyl-5-oxo-4,5-dihydro-1H-1,2,4-triazole-3-carboxamide] | 5.44 |
| Cc1cc(F)ccc1CC1(CNC(=O)c2nn(C)c(=O)[nH]2)CCC1 [Example 86, N-((1-(4-Fluoro-2-methylbenzyl)cyclobutyl)methyl)-1-methyl-5-oxo-4,5-dihydro-1H-1,2,4-triazole-3-carboxamide] | 5.86 |
| O=C(NCC1(Cc2ccc(F)cc2F)CCC1)c1ccn[nH]c1=O [Example 134, N-((1-(2,4-difluorobenzyl)cyclobutyl)methyl)-3-oxo-2,3-dihydropyridazine-4-carboxamide] | <4.57 |
| O=C(NCC1(Cc2ccc(F)cc2F)CCC1)c1nnn[nH]1 [Example 140] | <4.57 |
